Positions of bridges follow the written chain, without caps; N, C: chain ends.
B1: BMP-7: bone morphogenetic protein-7; recombinant human BMP7, positive control (protein)
chain: STGSKQRSQNRSKTPKNQEALRMANVAENSSSDQRQACKKHELYVSFRDLGWQDWIIAPEGYAAYYCEGECAFPLNSYMNATNHAIVQTLVHFINPETVPKPCCAPTQLNAISVLYFDDSSNVILKKYRNMVVRACGCH

Tests used:
[1] = test system: cisplatin-induced nephrotoxicity in rats; assay: Cisplatin-induced nephrotoxicity in rats; type: in vivo; settings: cisplatin plus THR-123 versus cisplatin alone
From the text: FIG. 38 Tumor necrosis factor-a (TNF-a) production via p38 mitogen-activated protein kinase (MAPK) is one of the pivotal mechanisms in the development of AKI induced by a nephrotoxic agent, cisplatin (Ramesh, G and Reeves, W B. Am J Physiol Renal Physiol 289:F166-F174, 2005). Therefore THR-123 was further examined to determine if the compound is capable of inhibiting cisplatin-induced nephrotoxicity in animals. The upper right and left panels in the figure show Kidney sections immunostained for ICAM-1 expression and the lower right and left panels show immunostaining for the presence of macrophages. The kidney sections in the left column were treated with cisplatin alone and the right column panels were treated with cisplatin and THR-123. Arrows in the upper panel indicate ICAM-1 expression which was reduced by THR-123. Arrows in the lower panel indicate infiltration of macrophages as detected by Mac CD-68 staining, which was reduced by THR-123.

[2] = test system: pluripotent mesenchymal stem cells (C3H10T1/2); assay: Osteoblastic differentiation of pluripotent stem cells (alkaline phosphatase staining); type: cell-based, Murine; settings: BMP-7 2 ug/mL
From the text: Murine pluripotent mesenchymal stem cells (C3H10T1/2) treated with medium alone, BMP-7 or THR-123 were stained for alkaline phosphatase activity, an osteogenic marker. No staining of cells was observed when treated with medium alone (control, panel FIG. 41A) or with THR-123 (panel FIG. 41B). […] Cells were counterstained with hematoxylin.

[3] = test system: NP-1 cells; assay: TGF-β-induced EMT in NP-1 cells (inhibition and reversal); type: cell-based; settings: for TGF-β-induced E-cadherin loss (co-incubation): 48 h; for TGF-β-induced E-cadherin loss (co-incubation) / TGF-β-induced EMT, cell shape (co-incubation): BMP-7 1 μg/ml, THR-123 10 μM; for E-cadherin expression in TGF-β-incubated cells (reversal) / percentage of cells that regained epithelial characteristics (length to width ratio): NP-1 cells; for TGF-β-induced EMT, cell shape (co-incubation): TGF-β 3 ng/ml with EGF 48 h; for percentage of cells that regained epithelial characteristics (length to width ratio): reversal experiment
Protocol: FIG. 51A-FIG. 51J THR-123 inhibits epithelial-mesenchymal transition in NP-1 cells. FIG. 51A-FIG. 51E: Bright field image. […] F-J. E-cadherin immunofluorescence labeling. NP-1 cells expressed E-cadherin in cell border (FIG. 51F). […] Representative results are shown.
FIG. 53A-FIG. 53L Reversal of EMT by THR-123 in NP-1 cells A-E: Inverted microscopic pictures. FIG. 53A. Basal polygonal epithelial nature of NP1 cells. FIG. 53B. […] FIG. 53C, FIG. 53D. BMP 7 (1 μg/ml) (FIG. 53C) or THR-123 (10 μM) (FIG. 53D) were added to mesenchymal like cells induced by TGF-β and EGF for the additional 48 hrs. […] FIG. 53E. […] FIG. 53F. Ratio of length to width was calculated in reversal experiment. Five representative pictures of the cells in different areas of the well, were taken by using the inverted microscope. A total of 100 cells were analyzed (20 cells per picture). […] The data are presented mean+s.e.m. in the graph. FIG. 53G. […] Mean plus one SD was estimated as epithelial characteristics and the percentage of epithelial characteristics in each experimental setting were estimated. 18% of BMP7 and 24% of THR-123 treated NP-1 cells regained epithelial characteristics. FIG. 53H-FIG. 53L. Immunofluorescence picture for E-cadherin. TGF-β incubation decreased E-cadherin levels when compare to untreated cells (FIG. 53H, FIG. 53I). […] Representative results from three independent experiments are shown.
(§1) EMT was induced in NP1 cells or MCT cells by incubation with 3 ng/ml recombinant human […] for 48 h. When EMT occurred, the medium was removed and replaced with THR-123 (10 μM) or recombinant human BMP7 (100 ng/ml) in DMEM. After 48 h, the cells were characterized by immunocytochemistry using primary monoclonal antibodies to E-cadherin ([…]) and rhodamine-conjugated secondary antibodies (Jackson Immunoresearch, West Grove, Pa.) as previously described. The staining was visualized by fluorescence microscopy and documented representative pictures using Spot advanced software (Carl Zeiss, Oberkochen, Germany). Also protein and total RNA were harvested at the end of experiment. For the morphometric analysis for EMT, length/width of cells in bright field pictures are measured by image J software. The ratio of length/width was calculated.

[4] = test system: MCT cells; assay: TGF-β-induced EMT in MCT cells (inhibition and reversal); type: cell-based; settings: for reversal of EMT: additional 48 h after EMT induction, BMP-7 1 μg/ml; for percentage of cells that regained epithelial characteristics (length to width ratio 3 or less): reversal experiment, MCT cells
Protocol: FIG. 52A-FIG. 52E THR-123 inhibits epithelial-mesenchymal transition in MCT cells. Inhibition of EMT by THR-123. […] FIG. 52D, FIG. 52E qPCR analysis for mesenchymal marker CTGF (FIG. 52D) and Snail1 (FIG. 52E). Total RNA was extracted from cells. 1 μg of total RNA was used for generating complementary cDNA and subsequently qPCR was performed. N=3. Data was expressed as mean±s.e.m. in the graph.
FIG. 54A-FIG. 54H THR-123 reverses TGF-β-induced EMT in MCT cells. FIG. 54A-FIG. 54E. Cell were induced EMT by 48 h incubation of TGF-β and EGF (FIG. 54E). After induction of EMT, cells are incubated with either BMP-7 (1 μg/ml) (FIG. 54C), THR-123 (10 μM) (FIG. 54D) or control peptide (FIG. 54E) for an additional 48 h. […] FIG. 54F. Ratio of length to width was calculated in reversal experiment. 5 representative pictures of the cells in different areas of the well, were taken by using the inverted microscope. A total of 100 cells were analyzed (20 cells per picture). […] The data are presented mean±s.e.m. in the graph. FIG. 54G: 3 or less in length to width ratio in MCT cell was estimated as epithelial characteristics and the percentage of epithelial characteristics in each experimental setting are estimated. 52% of BMP7 and 41% of THR-123 treated MCT cells regained epithelial characteristics. Experiments were repeated three times.
as §1

Molecule | ICAM-1 expression in kidney sections [1] | infiltration of macrophages (Mac CD-68 staining) [1] | osteoblastic differentiation (alkaline phosphatase staining) [2] | TGF-β-induced E-cadherin loss (co-incubation) [3] | E-cadherin expression in TGF-β-incubated cells (reversal) [3] | TGF-β-induced EMT, cell shape (co-incubation) [3] | percentage of cells that regained epithelial characteristics (length to width ratio) [3] [%] | TGF-β induced expression of snail and CTGF (qPCR) ([4]; FIG. 52 D, E) | TGF-β-induced EMT, cell shape (co-incubation) ([4]; TGF-β 2.5 ng/ml 48 h, THR-123 10 μM) | reversal of EMT ([4]; THR-123 10 μM) | percentage of cells that regained epithelial characteristics (length to width ratio 3 or less) [4] [%]
(H)-CYFDDSSNVLCKKYRS-(OH) (H-CYFDDSSNVLCKKYRS-OH; disulfide 1-11; SMILES CC(C)C[C@@H]1NC(=O)[C@H](C(C)C)NC(=O)[C@H](CC(N)=O)NC(=O)[C@H](CO)NC(=O)[C@H](CO)NC(=O)[C@H](CC(=O)O)NC(=O)[C@H](CC(=O)O)NC(=O)[C@H](Cc2ccccc2)NC(=O)[C@H](Cc2ccc(O)cc2)NC(=O)[C@@H](N)CSSC[C@@H](C(=O)N[C@@H](CCCCN)C(=O)N[C@@H](CCCCN)C(=O)N[C@@H](Cc2ccc(O)cc2)C(=O)N[C@@H](CCCNC(=N)N)C(=O)N[C@@H](CO)C(=O)O)NC1=O) [SEQ ID NO: 1] | reduced | reduced | failed to induce osteoblastic differentiation | prevents E-cadherin loss | reversed E-cadherin expression | prevents these phenotypic changes | 24 | inhibited | prevents these phenotypic changes | Reversal of EMT was observed | 41
B1 |  |  | induced osteoblastic differentiation | prevents E-cadherin loss | reversed E-cadherin expression | prevents these phenotypic changes | 18 |  |  | Reversal of EMT was observed | 52

Reference: patent US20160058829A1, “ANTI-FIBROTIC PEPTIDES AND THEIR USE IN METHODS FOR TREATING DISEASES AND DISORDERS CHARACTERIZED BY FIBROSIS” (Thrasos Innovation, Inc., priority 2011, published 2016)
